The assay deals with T1, human corticosteroid-binding globulin (CBG; SERPINA6) (Homo sapiens, UniProt P08185).
T1 construct: RCL intact; no tag
T1 sequence (P08185 23-405): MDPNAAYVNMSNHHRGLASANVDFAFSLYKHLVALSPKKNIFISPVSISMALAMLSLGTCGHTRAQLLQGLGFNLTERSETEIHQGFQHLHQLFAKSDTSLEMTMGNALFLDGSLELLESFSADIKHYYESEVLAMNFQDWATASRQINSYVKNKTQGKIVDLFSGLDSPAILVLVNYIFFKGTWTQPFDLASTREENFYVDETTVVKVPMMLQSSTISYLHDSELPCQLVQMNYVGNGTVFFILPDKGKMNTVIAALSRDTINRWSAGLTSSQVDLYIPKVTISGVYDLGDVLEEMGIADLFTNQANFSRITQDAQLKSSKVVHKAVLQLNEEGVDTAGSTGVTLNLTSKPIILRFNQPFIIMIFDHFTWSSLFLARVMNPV
Description: [3H]-corticosterone saturation binding, Scatchard analysis. Conditions: labelled compound; steroid-affinity purified plasma CBG, before 9G12 immunoprecipitation, ELISA-discordant sample; unreliable: unit doubtful, see left_out.

In turn, `C[C@]12C[C@H](O)[C@H]3[C@@H](CCC4=CC(=O)CC[C@@]43C)[C@@H]1CC[C@@H]2C(=O)CO` [corticosterone] yielded a Kd of 1.72 nM.

Source of the values: article PMC6347282, “Neutrophil elastase-cleaved corticosteroid-binding globulin is absent in human plasma” (The Journal of Endocrinology, 2018).
